Source: patent publication US20250057793A1, “BENZOIC ACID SALTS FOR TREATMENT OF NERVOUS SYSTEM INJURIES AND DISORDERS” (The United States Government as represented by the …, priority 2021, published 2025)

Experiments:
[1] = system: mice with traumatic brain injury (TBI); assay: Remyelination in corpus callosum of mice with TBI (PLP/A2B5 double-labeling); format: in vivo, mouse; conditions: 50 mg/kg body weight/day oral gavage
Experimental: FIG. 4 are images of the corpus collosum in mice showing the levels of proteolipid protein (PLP) and A2B5, a marker of oligodendroglial progenitor cells (OPC), in the experimental conditions after 21 days. Oral administration of sodium benzoate (NaB), but not sodium formate (NaFO), stimulates remyelination in mice with traumatic brain injury (TBI). Mice (n=6 per group) were induced moderate TBI by controlled cortical impact (CCI). Starting from 2 hours after TBI, mice were treated with NaB and NaFO (50 mg/kg body weight/day; mixed with water) orally via gavage. After 21 d of treatment, brain sections were double-labeled for PLP and A2B5.
Proteolipid protein (PLP) is a marker of oligodendrocytes and A2B5 is a marker of oligodendroglial progenitor cells (OPC). After 21 days of treatment, brain sections were double-labeled with antibodies against PLP and A2B5.

CCI-induced TBI mice [2] = assay: Lesion volume in CCI-induced mice (Cavalieri stereology); format: in vivo, mouse
Experimental: FIG. 5C is a plot showing lesion size in the experimental conditions. Lesion size was quantitatively measured in control mice, untreated CCI injured mice, NaB treated CCI-mice and NaFO-treated CCI-mice at 21 days post-injury. Statistical analyses were performed with Student's t-test in the injured side of the brain [^ap<0.001 (5.623×10^−7) vs control; ^bp<0.001 (=0.001) vs CCI injury].
FIGS. 10A-10C. Decrease in lesion volume in TBI mice by GTB treatment. […] FIG. 10A. […] FIG. 10C. Lesion volume was quantified in all groups of mice. Statistical analyses were performed with two way ANOVA and expressed as mean±SD to compare the lesion volume between unlesioned and lesioned side of the brain.
The estimation of lesion volume was performed based on the Cavalieri method of unbiased stereology using the StereoInvestigator software (MicroBright Biosciences, USA). Both the ipsilateral and contralateral hemisphere of brain volumes were determined using the Cavalieri estimator with a 1 mm grid spacing 1 mm. Every fourth section was analyzed beginning from a random start point. Lesion volume was estimated by subtracting the volume of the ipsilateral hemisphere from that of the contralateral hemi-sphere. Then the volume of lesion cavity estimated in brain section of untreated mice was compared with lesion volume of brain sections of drug treated mice.

CCI-injured mice [3] = assay: Rotarod test in CCI-injured mice; format: in vivo, mouse; conditions: 50 mg/kg/day oral
Experimental: The forehindlimb motor coordination and balance in animals was observed using the rotarod test as described in earlier studies. Briefly, each mouse was placed on the confined section of the rod and trial was initiated with a smooth increase in speed from 4 rpm to 40 rpm for 5 mins. […] The latency to fall was measured in seconds and used for the analysis. Following the CCI injury, each mouse performed the task three trials during the testing sessions and the average score on these three trials was used as the individual rotarod score. Each trial on the rod was terminated when the mice fell off the rod or held on to the rod by hanging and completed improper revolutions.

CCI-injured mice [4] = assay: Grid runway in CCI-injured mice; format: in vivo, mouse; conditions: 7 day post-injury, 50 mg/kg/day oral
Description: The grid runway (65 cm length×8 cm breadth×1 cm intervals) made of parallel grid bars with interbar intervals of 1 cm apart and grid were kept above the surface on a table during the testing session. The soft padding was positioned under the grid run-way in the event for protection to avoid serious injury, if the animal falls from the grid. Each mouse was allowed to walk freely on grid and the time taken and number of steps to cross the runway was noted. Each successful foot placement on grid was recorded as a step. However, an error was considered whenever the paw slips through the grid or the paw misses a bar and extends downwards through the plane of bars. The locomotor behavior of animal on grid was evaluated by an observer blinded to the treatment on 7th and 21st day after CCI injury.

TBI mice = assay: Barnes maze test in TBI mice; format: in vivo, mouse; conditions: NOR, Barnes maze and T maze, 21 days, 50 mg/kg/day oral
Experimental: The Barnes maze test was performed as described in our earlier studies. Briefly, the mice were initially trained for 2 consecutive days followed by examination on day 3. After each training session, maze and escape tunnel were thoroughly cleaned with a mild detergent to avoid instinctive odor avoidance due to mouse's odor from the familiar object. On day 3, a video camera (Basler Gen I Cam—Basler acA 1300-60) connected to a Noldus computer system was placed above the maze and was illuminated with high voltage light that generated enough light and heat to motivate animals to enter into the escape tunnel. The performance was monitored by the video tracking system (Noldus System). Cognitive behavior parameters were examined by measuring latency (duration before all four paws were on the floor of the escape box) and errors (incorrect response before all four paws were on the floor of the escape box).

[5] = system: oligodendroglial progenitor cells (OPCs); assay: Maturation of oligodendroglial progenitor cells (OPCs) into oligodendrocytes; format: cell-based, mouse; conditions: 100 μM, 18 h, serum-free, absence of FGF and PDGF
Experimental: FIGS. 15A-15L: Effect of sodium benzoate (NaB) on the maturation of oligodendroglial progenitor cells (OPCs) into oligodendrocytes. OPCs were isolated from P1˜P2 neonatal mouse pups, cultured in OPC media for 4 days in vitro (DIV) followed by treatment with 100 μM NaB and sodium formate (NaFO) in the absence of FGF and PDGF.
FIG. 15A) After 18 h of 100 μM NaB treatment in serum-free condition, cells were fixed and then dual immuno-stained with MBP (red) and OPC marker NG2 (green). Nuclei were stained with DAPI (blue). FIG. 15B) Similarly, OPCs were stained with PLP (red) and A2B5 (green) under similar treatment condition. Quantification of MBP+(FIG. 15C), NG2+(FIG. 15D), PLP+(FIG. 15E), and A2B5+(FIG. 15F) cells as a percentage of total cells (DAPI+). Average 5 fields per slide, total 3 slides. Results are mean+SEM. ***p<0.001. FIG. 15G) For protein expression, cells were treated with different doses of NaB for 18 h under serum free condition and then immunoblotted with PLP and MOG. FIG. 15H) Densitometric analyses of the bands relative to beta actin were done for PLP and MOG. ^ap<0.001 vs. control PLP; ^bp<0.005 vs. control MOG. FIG. 151) Cells were treated with NaB (100 μM) and NaFO (100 μM) for 4 h under serum-free condition followed by monitoring the mRNA expression of myelin-specific genes by real-time PCR (ap<0.01 vs. control PLP; ^bp<0.01 vs. control MOG; cp<0.01 vs. control MBP; dp<0.01 vs. control CNPase). OPCs were cultured on the top of randomly-oriented polycaprolactone nanofibers (Nanofiber Solutions; Cat #Z694576) for 7 days. After that, these cells were treated with 100 μM NaB (FIG. 15J) and NaFO (K) for additional 2 days followed by immunofluorescence analysis for MBP (red) (FIG. 15J, control; FIG. 15K, NaB; FIG. 15L, NaFO). […] Representative 3D constructed images of OPCs adhered to nanofibers were also shown at the right side.

[6] = system: OPCs cultured on polycaprolactone nanofibers; assay: Myelination of synthetic polycaprolactone nanofibers by OPCs; format: cell-based, mouse; conditions: 100 μM, 2 days after 7 days culture on nanofibers
Experimental: FIG. 15A) After 18 h of 100 μM NaB treatment in serum-free condition, cells were fixed and then dual immuno-stained with MBP (red) and OPC marker NG2 (green). Nuclei were stained with DAPI (blue). FIG. 15B) Similarly, OPCs were stained with PLP (red) and A2B5 (green) under similar treatment condition. Quantification of MBP+(FIG. 15C), NG2+(FIG. 15D), PLP+(FIG. 15E), and A2B5+(FIG. 15F) cells as a percentage of total cells (DAPI+). Average 5 fields per slide, total 3 slides. Results are mean+SEM. ***p<0.001. FIG. 15G) For protein expression, cells were treated with different doses of NaB for 18 h under serum free condition and then immunoblotted with PLP and MOG. FIG. 15H) Densitometric analyses of the bands relative to beta actin were done for PLP and MOG. ^ap<0.001 vs. control PLP; ^bp<0.005 vs. control MOG. FIG. 151) Cells were treated with NaB (100 μM) and NaFO (100 μM) for 4 h under serum-free condition followed by monitoring the mRNA expression of myelin-specific genes by real-time PCR (ap<0.01 vs. control PLP; ^bp<0.01 vs. control MOG; cp<0.01 vs. control MBP; dp<0.01 vs. control CNPase). OPCs were cultured on the top of randomly-oriented polycaprolactone nanofibers (Nanofiber Solutions; Cat #Z694576) for 7 days. […]

CCI-induced TBI mice [7] = assay: Glial activation and iNOS in brain of CCI-induced TBI mice (immunofluorescence, Western blot); conditions: cortex and hippocampus
[8] = system: mouse RAW 264.7 macrophages; assay: NO production from stimulated RAW 264.7 macrophages (nitrite, Griess reagent); format: cell-based; conditions: cinnamein pretreatment 6 h, serum-free, 24 h; for LPS-induced production of NO (nitrite): 1 μg/ml LPS; for IFNγ-induced production of NO (nitrite): 25 U/ml IFNγ
Experimental: FIGS. 18A-18C. Cinnamein inhibits the induction of NO production from LPS- and IFNγ-stimulated mouse RAW 264.7 macrophages. FIG. 18A) Cells preincubated with different concentrations of cinnamein for 6 h were stimulated with 1 μg/ml LPS under serum-free condition. After 24 h of stimulation, the level of nitrite was measured in supernatants by Griess reagent. FIG. 18B) Cells preincubated with 400 μM cinnamein for different hours were stimulated with 1 μg/ml LPS under serum-free condition. After 24 h of stimulation, the level of nitrite was measured in supernatants. FIG. 18C) Cells preincubated with different concentrations of cinnamein for 6 h were stimulated with 25 U/ml IFNγ under serum-free condition. After 24 h of stimulation, the level of nitrite was measured in supernatants. Results are mean+SD of three independent experiments. *p<0.05; **p<0.01; ***p<0.001; NS, not significant.

primary mouse microglia = assay: Proinflammatory cytokine production in primary mouse microglia (ELISA); format: cell-based; conditions: cinnamein 6 h, serum-free, 24 h
Experimental: FIGS. 19A-19B. Cinnamein inhibits LPS- and polyIC-induced production of TNFα in primary mouse microglia. Microglia isolated from 2d old mouse pups were incubated with different concentrations of cinnamein for 6 h followed by stimulation with either 1 μg/ml LPS (FIG. 19A) or 50 μg/ml polyIC (FIG. 19B) under serum-free condition. After 24 h of stimulation, the level of TNFα was measured in supernatants by ELISA. Results are mean+SD of three independent experiments. *p<0.05; **p<0.01; ***p<0.001; NS, not significant.
FIGS. 20A-20B. Cinnamein suppresses the production of IL-1j3 from LPS- and poly IC-stimulated primary mouse microglia. Cells preincubated with different concentrations of cinnamein for 6 h were stimulated with either 1 μg/ml LPS (FIG. 20A) or 50 μg/ml polyIC (FIG. 20B) under serum-free condition. After 24 h of stimulation, the level of […] was measured in supernatants by ELISA. Results are mean+SD of three independent experiments. ***p<0.001.
FIGS. 21A-21B. Cinnamein decreases LPS- and polyIC-induced production of IL-6 in primary mouse microglia. Microglia were incubated with different concentrations of cinnamein for 6 h followed by stimulation with either 1 μg/ml LPS (FIG. 21A) or 50 μg/ml polyIC (FIG. 21B) under serum-free condition. After 24 h of stimulation, the level of IL-6 was measured in supernatants by ELISA. Results are mean+SD of three independent experiments. ***p<0.001.

primary mouse astrocytes = assay: Proinflammatory cytokine production in primary mouse astrocytes (ELISA); format: cell-based; conditions: cinnamein 6 h, 50 μg/ml poly IC, serum-free, 24 h
Experimental: FIGS. 22A-22B. Cinnamein inhibits the production of proinflammatory cytokines from polyIC-stimulated primary mouse astrocytes. Astrocytes preincubated with different concentrations of cinnamein for 6 h were stimulated with 50 μg/ml poly IC under serum-free condition. After 24 h of stimulation, levels of TNFα (FIG. 22A) and IL-6 (FIG. 22B) were measured in supernatants by ELISA. Results are mean+SD of three independent experiments. *p<0.05; **p<0.01; ***p<0.001.

[9] = day 7 post-injury, 50 mg/kg/day oral from 24 h after CCI
[10] = 1 μg/ml LPS, listed as Cinnamein
[11] = 50 μg/ml polyIC, listed as Cinnamein

O=C[O-].[Na+] [NaFO, sodium formate]
level of PLP in corpus callosum ([1]; 21 days of treatment): remained unable to restore | number of OPCs (A2B5 positive) in corpus callosum ([1]; 21 days of treatment): remained unable | remyelination ([1]; 21 d of treatment): not | total lesion volume / size of lesion cavity (CCI-induced TBI mice [2]; cresyl violet sections, 21 days post-injury, 50 mg/kg/day oral): not | structural-tissue integrity of damaged hippocampus (CCI-induced TBI mice [2]; oral treatment started 24 h after CCI): remained unable to exhibit such protection | latency to fall on rotarod (CCI-injured mice [3]; 7 day post-injury): not | latency to fall on rotarod (CCI-injured mice [3]; 21 day post-injury): not | gait movement on grid runway (steps, time taken, foot misplacement) (CCI-injured mice [4]): not | hippocampus-dependent behaviors / cognitive performance (TBI mice): remained unable to improve | differentiation/maturation of OPCs into oligodendrocytes (MBP+, PLP+, NG2+, A2B5+ cells) [5]: did not promote | myelination of synthetic fibers (MBP immunofluorescence) [6]: not | iNOS / iNOS-positive cells (CCI-induced TBI mice [7]; day 7, 50 mg/kg/day oral): not | GFAP-positive astrocytes (CCI-induced TBI mice [7]; [9]): remained unable to inhibit glial activation | Iba1-positive microglia (CCI-induced TBI mice [7]; [9]): remained unable to inhibit glial activation

O=C(/C=C/c1ccccc1)OCc1ccccc1 [cinnamein, Cinnamein]
LPS-induced production of NO (nitrite) [8]: significantly inhibited | LPS-induced production of NO (nitrite) ([8]; listed as Cinnamein): inhibits | IFNγ-induced production of NO (nitrite) [8]: significantly inhibited | IFNγ-induced production of NO (nitrite) ([8]; listed as Cinnamein): inhibits | LPS-induced production of IL-6 (primary mouse microglia; 1 μg/ml LPS): strongly inhibited | LPS-induced production of TNFα (primary mouse microglia; 1 μg/ml LPS): strongly inhibited | production of IL-1β (primary mouse microglia; 1 μg/ml LPS): strongly inhibited | LPS-induced production of IL-6 (primary mouse microglia; [10]): decreases | LPS-induced production of TNFα (primary mouse microglia; [10]): inhibits | production of IL-1β (primary mouse microglia; [10]): suppresses | polyIC-induced production of IL-6 (primary mouse microglia; 50 μg/ml polyIC): strongly inhibited | polyIC-induced production of TNFα (primary mouse microglia; 50 μg/ml polyIC): strongly inhibited | production of IL-1β (primary mouse microglia; 50 μg/ml polyIC): strongly inhibited | polyIC-induced production of IL-6 (primary mouse microglia; [11]): decreases | polyIC-induced production of TNFα (primary mouse microglia; [11]): inhibits | production of IL-1β (primary mouse microglia; [11]): suppresses | polyIC-induced production of IL-6 (primary mouse astrocytes): inhibited | polyIC-induced production of TNFα (primary mouse astrocytes): inhibited | polyIC-induced production of IL-6 (primary mouse astrocytes; listed as Cinnamein): inhibits | polyIC-induced production of TNFα (primary mouse astrocytes; listed as Cinnamein): inhibits
